Patent US8153609B2 (priority 2004, dated 2012)
“And” between values parts separate entries of the source, which are not always exact repeats. Identical values can stand only once. Counter-ions that a name gives are not always drawn. Like-named read-outs stand apart in the source and are kept apart here.

How the values were obtained:
[1] = target: T1, PKA type Iα (RIα/Cα) holoenzyme (Homo sapiens, UniProt P10644); assay: Cook coupled spectrophotometric kinase assay, suppression (antagonist) assay, PKA type Iα; type: biochemical; conditions: for Antagonist / EC50: Table 1 (Example 83), PKA type Iα; for EC50: unit inferred, read-out: EC50 inhibition; for relative potency*: antagonists relative to Rp-8Br-cAMPS; for Potency: PKA type Iα enzymatic activity, relative to the known Rp-8-Br-cAMPS
[2] = target: T1, PKA type Iα (RIα/Cα) holoenzyme; assay: Cook assay, activation (agonist) assay, RIα holoenzyme; type: biochemical; conditions: Table 1 (Example 83), activation screen 10 μM analog
[3] = system: Human peripheral T lymphocytes; assay: T lymphocyte proliferation assay (anti-CD3 activated, [3H]thymidine); conditions: Ex vivo testing in T lymphocytes; for Antagonist properties: in presence of agonist Sp-8-Br-cAMPS; for relative potency*: reference compounds = 1.00
[4] = target: T2, PKA type IIα (RIIα holoenzyme) (Homo sapiens, UniProt P13861); assay: Cook kinase assay, suppression assay, PKA type IIα; type: biochemical; conditions: for Antagonist / EC50: Table 2, Holo RIIa; for relative inhibition*: % antagonist effect with 1 μM Sp-8Br-cAMPS at 250 μM of Rp-cAMPS analog; for EC50RII/EC50RI***: Selectivity for PKA type I (EC50 PKA type II/EC50 PKA type I); for EC50: unit inferred, read-out: EC50 inhibition; for relative potency**: antagonists relative to Rp-8-Br-cAMPS, Holo RIIa; for IC50: reversal of Sp-8-Br-cAMP-mediated PKA type II activation, 1 μM Sp-8-Br cAMPS, 10 nM RIIα holoenzyme, read-out: half-maximal antagonistic effect (IC50 or EC50)
[5] = target: T2, PKA type IIα (RIIα holoenzyme); assay: Cook assay, activation of Holo RIIα; conditions: for Agonist: Table 2, Holo RIIa
PKA type Iα (holo RIα) = PKA type Iα (holo RIα) (Homo sapiens, UniProt P10644); assay: Biacore surface competition ligand binding assay, holo RIα; conditions: 10 nM holo RIα; for EC50: Rp-8-AHA cAMPS surface
[6] = system: CD4+ T cells of MAIDS-infected C57BL6 mice; conditions: mouse, in vivo
[7] = reversal of Sp-8-Br-cAMP-mediated PKA activation, 1 μM Sp-8-Br-cAMPS, 10 nM RIα holoenzyme, read-out: half-maximal antagonistic effect (IC50 or EC50)

Compound | Antagonist [1] | relative potency* [1] | IC50 [1, 7] | Agonist [2] | Agonist properties [3] | Antagonist properties [3] | Potency [1] | also measured
Nc1ncnc2c1nc(-c1ccc(Br)o1)n2C1OC2COP(O)(=S)OC2C1O (stereo not shown) [Rp-8-(2-Br-5-furyl)-cAMPS] | yes* | 0.45 | 2900 nM | no | No | Yes |  | EC50 [1]: 3000 nM
CCc1nc2c(N)ncnc2n1C1OC2COP(O)(=S)OC2C1O (stereo not shown) [Rp-8-ethyl-cAMPS] | yes | 0.22 | 6130 nM | no | No | Yes |  | 
Nc1ncnc2c1nc(-c1cc3ccccc3o1)n2C1OC2COP(O)(=S)OC2C1O (stereo not shown) [Rp-8-benzofuryl-cAMPS, (Rp)-8-(2-Benzofuryl)adenosine-3′,5′-cyclic phosphorothioic acid tributylammonium salt] | yes | 0.49 |  | no | No | Yes |  | EC50 [1]: 2780 nM
Cc1ccc(-c2nc3c(N)ncnc3n2C2OC3COP(O)(=S)OC3C2O)o1 (stereo not shown) [Rp-8-(5-Me-2-furyl)-cAMPS, (Rp)-8-(5-Methyl-2-furyl)adenosine-3′,5′-cyclic phosphorothioic acid tributylammonium salt] | yes | 1.17 | 1160 nM | no | No | Yes |  | 
Nc1ncnc2c1nc(Br)n2[C@@H]1O[C@@H]2COP(O)(=S)O[C@@H]2C1O (stereo partly shown) [Sp-8-Br-cAMPS, reference compound] |  |  |  |  | Yes | No |  | Antagonist [4]: no; Agonist [5]: yes; EC50 ([5]; read-out: EC50 (activation constant of Holo RIIα with agonist), 10 nM Holo RIIα, 3 minute preincubation): 294 nM; relative potency* [3]: 1.00
Nc1ncnc2c1nc(-c1ccsc1)n2C1OC2COP(O)(=S)OC2C1O (stereo not shown) [Rp-8-(3-thienyl)-cAMPS] | yes | 1.83 | 739 nM | no |  | Yes | 1.83 | 
(Rp)-8-(2-Thiazolyl)adenosine-3′,5′-cyclic phosphorothioic acid ammonium salt [Rp-8-(2-thiazole)-cAMPS] |  |  |  |  | No | Weak |  | 
Nc1ncnc2c1nc(-c1cccs1)n2C1OC2COP(O)(=S)OC2C1O (stereo not shown) [Rp-8-(2-thienyl)-cAMPS, (Rp)-8-(2-Thienyl)adenosine-3′,5′-cyclic phosphorothioic acid ammonium salt] | yes | 3.01 | 449 nM | no | No | Yes | 3.01 | 
Nc1ncnc2c1nc(-c1ccc(CO)o1)n2C1OC2COP(O)(=S)OC2C1O (stereo not shown) [Rp-8-(5-MeOH-2-furyl)-cAMPS, (Rp)-8-(2-Hydroxymethyl-5-furyl)adenosine-3′,5′-cyclic phosphorothioic acid tributylammonium salt] | yes | 0.68 | 1980 nM | no | No | Yes |  | 
Nc1ncnc2c1nc(-c1ccco1)n2C1OC2COP(O)(=S)OC2C1O (stereo not shown) [Rp-8-(2-furyl)-cAMPS, (Rp)-8-(2-Furyl)adenosine-3′,5′-cyclic phosphorothioic acid ammonium salt] | yes | 4.24 | 238 nM and 337 nM and 360 nM | no | No | Yes | 4.24 | EC50 [1]: 319 nM; IC50 ([1]; Table 3, read-out: holo RIa Cook): 349 nM; relative inhibition* [4]: 59%; EC50RII/EC50RI*** [4]: 32; Antagonist [4]: yes; EC50 [4]: 11600 nM; relative potency** [4]: 1.28; IC50 [4]: 11600 nM and 16700 nM; EC50 (PKA type Iα (holo RIα)): 377 nM; binding to 8-AHA cAMP surface (PKA type Iα (holo RIα); any concentration of antagonist): not affected; binding of holo complex at the Rp-8-AHA cAMPS surface (PKA type Iα (holo RIα); excess of antagonist 10 μM): completely blocked; effect in binding to the 8-AHA cAMP surface (PKA type Iα (holo RIα); excess of antagonist 10 μM): no effect; IFN-γ secretion of CD4+ T cells from the infected mice [6]: slightly increasing; TNF-α secretion by CD4 T cells of infected mice [6]: inhibited; TNF-α secretion of CD4+ T cells from the infected mice after stimulation with SEB [6]: reducing; significance (p) of effect on SEB stimulated TNF-α secretion by CD4 T cells [6]: 0.0041; Agonist [5]: no
Nc1ncnc2c1nc(-c1ccccc1)n2C1OC2COP(O)(=S)OC2C1O (stereo not shown) [Rp-8-phenyl-cAMPS, (Rp)-8-Phenyladenosine-3′,5′-cyclic phosphorothioic acid] | yes | 1.28 |  | no | No | Yes | 1.28 | EC50 [1]: 1060 nM; relative inhibition* [4]: 61%; EC50RII/EC50RI*** [4]: 46; Antagonist [4]: yes; EC50 [4]: 48600 nM; relative potency** [4]: 0.31; IC50 [4]: 48600 nM; Agonist [5]: no
Nc1ncnc2c1nc(-c1ccoc1)n2C1OC2COP(O)(=S)OC2C1O (stereo not shown) [Rp-8-(3-furyl)-cAMPS, (Rp)-8-(3-Furyl)adenosine-3′,5′-cyclic phosphorothioic acid ammonium salt] | yes | 2.23 | 607 nM | no |  | Yes | 2.23 | EC50 (PKA type Iα (holo RIα)): 743 nM
(Rp)-8-(5-Methoxy-2-furyl)adenosine-3′,5′-cyclic phosphorothioic acid tributylammonium salt [Rp-8-(5-MeO-2-FU)-cAMPS] |  |  |  |  | No | Yes |  | relative potency* [3]: 0.25
CC(=O)c1nc2c(N)ncnc2n1C1OC2COP(O)(=S)OC2C1O (stereo not shown) [Rp-8-acetyl-cAMPS] | yes | 0.86 | 1580 nM | no | No | Yes |  | 
